According to paper PMC12406203 (Journal of Medicinal Chemistry, 2025):

Legend:
Experiment in all cases: KINOMEscan
Assay type in all cases: binding
[1] = target: T1, ABL1(E255K)-phosphorylated (Homo sapiens, UniProt P00519, E255K)
T1 construct: purchased Eurofins DiscoverX, LLC; host or cells: E. coli BL21-derived (T7 phage) or HEK-293

[2] = target: T2, AXL (Homo sapiens, UniProt P30530)
T2 construct: purchased Eurofins DiscoverX, LLC; host or cells: E. coli BL21-derived (T7 phage) or HEK-293
T2 sequence (P30530 26-894): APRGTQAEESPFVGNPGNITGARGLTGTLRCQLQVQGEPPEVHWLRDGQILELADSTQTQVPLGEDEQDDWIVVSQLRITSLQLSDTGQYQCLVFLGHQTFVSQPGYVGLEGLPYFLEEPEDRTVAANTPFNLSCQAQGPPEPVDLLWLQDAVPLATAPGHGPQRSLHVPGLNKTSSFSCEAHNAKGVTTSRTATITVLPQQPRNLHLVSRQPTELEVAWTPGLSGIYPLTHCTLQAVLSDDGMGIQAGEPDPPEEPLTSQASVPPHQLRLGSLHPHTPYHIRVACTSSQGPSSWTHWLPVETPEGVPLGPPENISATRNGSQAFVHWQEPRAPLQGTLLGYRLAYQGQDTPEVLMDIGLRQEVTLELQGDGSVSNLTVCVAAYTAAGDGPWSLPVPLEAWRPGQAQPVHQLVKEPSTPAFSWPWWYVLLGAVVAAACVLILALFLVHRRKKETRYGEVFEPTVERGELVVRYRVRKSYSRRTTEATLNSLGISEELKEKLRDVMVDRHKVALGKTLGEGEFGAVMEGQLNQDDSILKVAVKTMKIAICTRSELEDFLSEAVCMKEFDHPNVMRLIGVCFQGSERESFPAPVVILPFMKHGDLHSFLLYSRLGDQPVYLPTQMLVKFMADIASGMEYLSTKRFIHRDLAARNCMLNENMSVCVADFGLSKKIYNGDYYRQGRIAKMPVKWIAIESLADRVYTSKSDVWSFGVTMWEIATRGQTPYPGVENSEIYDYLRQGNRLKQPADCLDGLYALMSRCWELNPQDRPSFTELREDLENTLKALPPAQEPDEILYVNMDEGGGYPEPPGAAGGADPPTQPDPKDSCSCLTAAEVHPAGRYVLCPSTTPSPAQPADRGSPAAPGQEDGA

[3] = target: T3, CSNK1G2 (Homo sapiens, UniProt P78368)
T3 construct: purchased Eurofins DiscoverX, LLC; host or cells: E. coli (T7 phage) or HEK-293

[4] = target: T4, NLK (Homo sapiens, UniProt Q9UBE8)
T4 construct: purchased Eurofins DiscoverX, LLC; host or cells: E. coli (BL21-derived, T7 phage) or HEK-293
T4 sequence (Q9UBE8 1-527): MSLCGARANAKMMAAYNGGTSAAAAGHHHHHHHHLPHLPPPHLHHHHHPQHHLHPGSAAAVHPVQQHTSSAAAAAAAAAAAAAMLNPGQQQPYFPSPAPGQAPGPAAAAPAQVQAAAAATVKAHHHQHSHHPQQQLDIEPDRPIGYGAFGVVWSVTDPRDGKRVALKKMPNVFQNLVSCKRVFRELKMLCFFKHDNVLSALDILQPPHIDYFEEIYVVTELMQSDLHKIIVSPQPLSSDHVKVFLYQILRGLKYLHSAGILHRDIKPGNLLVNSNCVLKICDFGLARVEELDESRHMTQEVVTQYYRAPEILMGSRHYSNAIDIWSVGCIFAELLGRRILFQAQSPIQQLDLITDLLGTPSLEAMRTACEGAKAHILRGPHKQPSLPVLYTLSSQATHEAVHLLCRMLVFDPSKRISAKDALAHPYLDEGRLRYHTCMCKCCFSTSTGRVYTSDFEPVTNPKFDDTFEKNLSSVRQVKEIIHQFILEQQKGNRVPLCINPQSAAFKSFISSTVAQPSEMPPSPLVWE

[5] = target: T5, PIK3CG (Homo sapiens, UniProt P48736)
T5 construct: purchased Eurofins DiscoverX, LLC; host or cells: E. coli BL21-derived host (T7 phage) or HEK-293

[6] = target: T6, RIOK2 (Homo sapiens, UniProt Q9BVS4)
T6 construct: purchased Eurofins DiscoverX, LLC; host or cells: E. coli BL21-derived host (T7 phage) or HEK-293

[7] = target: T7, TRKA (Homo sapiens, UniProt P04629)
T7 construct: purchased Eurofins DiscoverX, LLC; host or cells: E. coli BL21-derived host (T7 phage) or HEK-293

[8] = target: T8, TYK2(JH1domain-catalytic) (Homo sapiens, UniProt P29597)
T8 construct: TYK2(JH1domain-; purchased Eurofins DiscoverX, LLC; host or cells: E. coli BL21-derived host (T7 phage) or HEK-293
T8 sequence (P29597 897-1176 limits assumed): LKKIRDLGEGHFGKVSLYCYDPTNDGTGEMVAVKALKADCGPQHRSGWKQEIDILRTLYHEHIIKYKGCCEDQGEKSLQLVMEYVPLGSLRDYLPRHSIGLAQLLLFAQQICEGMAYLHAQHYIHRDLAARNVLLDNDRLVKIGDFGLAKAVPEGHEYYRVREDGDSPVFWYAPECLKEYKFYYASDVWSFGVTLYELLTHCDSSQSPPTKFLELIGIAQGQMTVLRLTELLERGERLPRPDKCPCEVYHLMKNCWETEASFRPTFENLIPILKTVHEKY

[9] = target: T9, p38β (Homo sapiens, UniProt Q15759)
T9 construct: purchased Eurofins DiscoverX, LLC; host or cells: E. coli (BL21-derived, T7 phage) or HEK-293
T9 sequence (Q15759 whole entry): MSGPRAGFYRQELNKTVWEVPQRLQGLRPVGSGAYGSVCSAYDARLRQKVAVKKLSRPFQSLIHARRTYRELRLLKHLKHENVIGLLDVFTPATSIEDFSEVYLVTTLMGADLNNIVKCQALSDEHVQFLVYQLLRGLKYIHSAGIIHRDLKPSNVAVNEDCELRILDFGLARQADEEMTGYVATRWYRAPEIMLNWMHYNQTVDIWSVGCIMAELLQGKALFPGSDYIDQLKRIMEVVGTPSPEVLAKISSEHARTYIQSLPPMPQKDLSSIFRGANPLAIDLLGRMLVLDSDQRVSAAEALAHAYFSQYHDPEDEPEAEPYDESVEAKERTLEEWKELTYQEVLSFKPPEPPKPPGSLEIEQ

T6 sequence (Q9BVS4 whole entry): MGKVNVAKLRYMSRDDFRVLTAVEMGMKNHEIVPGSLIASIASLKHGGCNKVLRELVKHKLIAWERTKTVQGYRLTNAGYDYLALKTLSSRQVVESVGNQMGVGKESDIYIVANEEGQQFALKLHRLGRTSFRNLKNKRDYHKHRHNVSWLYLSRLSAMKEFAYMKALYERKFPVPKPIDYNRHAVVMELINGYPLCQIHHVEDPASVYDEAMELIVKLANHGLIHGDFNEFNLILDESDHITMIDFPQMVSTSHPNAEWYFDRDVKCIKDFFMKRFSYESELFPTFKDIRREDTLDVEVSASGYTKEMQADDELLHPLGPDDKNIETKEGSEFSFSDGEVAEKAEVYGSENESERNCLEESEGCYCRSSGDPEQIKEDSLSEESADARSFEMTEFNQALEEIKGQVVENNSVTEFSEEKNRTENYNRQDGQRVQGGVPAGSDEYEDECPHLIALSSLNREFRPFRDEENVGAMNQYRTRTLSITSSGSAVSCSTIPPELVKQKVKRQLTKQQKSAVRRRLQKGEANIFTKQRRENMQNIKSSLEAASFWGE
T5 sequence (P48736 whole entry): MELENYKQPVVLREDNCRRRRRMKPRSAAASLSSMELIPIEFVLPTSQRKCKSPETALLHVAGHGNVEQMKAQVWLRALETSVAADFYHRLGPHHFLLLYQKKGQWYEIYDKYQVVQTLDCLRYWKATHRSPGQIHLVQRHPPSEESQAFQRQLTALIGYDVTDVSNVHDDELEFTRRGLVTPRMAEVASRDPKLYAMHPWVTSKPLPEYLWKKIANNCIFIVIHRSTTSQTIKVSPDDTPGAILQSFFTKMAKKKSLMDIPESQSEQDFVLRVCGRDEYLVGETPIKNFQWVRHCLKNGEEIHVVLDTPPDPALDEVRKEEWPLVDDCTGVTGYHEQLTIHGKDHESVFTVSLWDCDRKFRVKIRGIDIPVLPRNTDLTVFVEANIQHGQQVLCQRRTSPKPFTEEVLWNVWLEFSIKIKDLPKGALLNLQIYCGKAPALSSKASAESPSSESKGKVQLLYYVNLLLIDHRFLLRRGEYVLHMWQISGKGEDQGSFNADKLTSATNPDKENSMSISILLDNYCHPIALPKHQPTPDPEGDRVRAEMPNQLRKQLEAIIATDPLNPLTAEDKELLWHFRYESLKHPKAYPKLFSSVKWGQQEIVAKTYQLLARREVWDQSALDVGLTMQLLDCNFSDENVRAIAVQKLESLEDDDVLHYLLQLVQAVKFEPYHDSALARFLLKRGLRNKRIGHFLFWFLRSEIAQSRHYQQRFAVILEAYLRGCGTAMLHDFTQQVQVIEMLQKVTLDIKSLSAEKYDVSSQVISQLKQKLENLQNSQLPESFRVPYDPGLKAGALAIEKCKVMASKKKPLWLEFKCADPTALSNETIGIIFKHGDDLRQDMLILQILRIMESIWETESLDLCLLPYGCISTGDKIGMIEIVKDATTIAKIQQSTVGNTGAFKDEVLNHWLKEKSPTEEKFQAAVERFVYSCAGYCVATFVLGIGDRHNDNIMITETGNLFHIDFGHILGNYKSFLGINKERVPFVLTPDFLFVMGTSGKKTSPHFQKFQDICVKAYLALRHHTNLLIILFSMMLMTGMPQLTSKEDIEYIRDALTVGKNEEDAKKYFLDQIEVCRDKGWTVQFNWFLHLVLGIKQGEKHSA
T1 sequence (P00519 whole entry E255K): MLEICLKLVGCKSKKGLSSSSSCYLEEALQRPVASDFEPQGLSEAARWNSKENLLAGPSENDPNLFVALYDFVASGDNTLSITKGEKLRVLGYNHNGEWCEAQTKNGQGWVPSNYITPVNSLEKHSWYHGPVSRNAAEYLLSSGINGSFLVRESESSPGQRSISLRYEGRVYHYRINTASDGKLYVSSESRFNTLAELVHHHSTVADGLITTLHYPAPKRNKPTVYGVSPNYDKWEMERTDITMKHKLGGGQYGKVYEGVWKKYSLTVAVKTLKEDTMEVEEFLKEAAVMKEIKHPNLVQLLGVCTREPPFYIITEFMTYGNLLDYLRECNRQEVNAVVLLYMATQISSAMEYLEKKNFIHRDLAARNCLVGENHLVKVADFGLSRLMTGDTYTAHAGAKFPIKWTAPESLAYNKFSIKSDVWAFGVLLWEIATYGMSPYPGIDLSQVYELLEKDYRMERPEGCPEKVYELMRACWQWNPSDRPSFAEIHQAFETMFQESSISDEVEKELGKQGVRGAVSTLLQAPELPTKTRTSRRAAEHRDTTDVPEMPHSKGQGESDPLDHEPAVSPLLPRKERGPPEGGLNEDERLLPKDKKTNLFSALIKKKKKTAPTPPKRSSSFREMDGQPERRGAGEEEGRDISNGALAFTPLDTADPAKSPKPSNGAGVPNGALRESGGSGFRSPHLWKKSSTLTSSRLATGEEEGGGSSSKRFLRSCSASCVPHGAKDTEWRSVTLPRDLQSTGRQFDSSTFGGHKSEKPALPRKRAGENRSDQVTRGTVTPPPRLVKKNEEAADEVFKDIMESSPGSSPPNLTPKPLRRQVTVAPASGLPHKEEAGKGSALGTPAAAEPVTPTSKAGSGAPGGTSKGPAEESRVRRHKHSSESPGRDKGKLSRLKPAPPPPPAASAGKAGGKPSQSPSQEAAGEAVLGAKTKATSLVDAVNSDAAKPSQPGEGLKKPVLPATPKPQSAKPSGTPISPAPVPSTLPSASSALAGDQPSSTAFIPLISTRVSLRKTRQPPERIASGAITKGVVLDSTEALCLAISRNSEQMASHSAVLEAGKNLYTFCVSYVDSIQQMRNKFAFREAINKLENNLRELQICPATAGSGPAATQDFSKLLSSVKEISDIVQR
T7 sequence (P04629 33-796): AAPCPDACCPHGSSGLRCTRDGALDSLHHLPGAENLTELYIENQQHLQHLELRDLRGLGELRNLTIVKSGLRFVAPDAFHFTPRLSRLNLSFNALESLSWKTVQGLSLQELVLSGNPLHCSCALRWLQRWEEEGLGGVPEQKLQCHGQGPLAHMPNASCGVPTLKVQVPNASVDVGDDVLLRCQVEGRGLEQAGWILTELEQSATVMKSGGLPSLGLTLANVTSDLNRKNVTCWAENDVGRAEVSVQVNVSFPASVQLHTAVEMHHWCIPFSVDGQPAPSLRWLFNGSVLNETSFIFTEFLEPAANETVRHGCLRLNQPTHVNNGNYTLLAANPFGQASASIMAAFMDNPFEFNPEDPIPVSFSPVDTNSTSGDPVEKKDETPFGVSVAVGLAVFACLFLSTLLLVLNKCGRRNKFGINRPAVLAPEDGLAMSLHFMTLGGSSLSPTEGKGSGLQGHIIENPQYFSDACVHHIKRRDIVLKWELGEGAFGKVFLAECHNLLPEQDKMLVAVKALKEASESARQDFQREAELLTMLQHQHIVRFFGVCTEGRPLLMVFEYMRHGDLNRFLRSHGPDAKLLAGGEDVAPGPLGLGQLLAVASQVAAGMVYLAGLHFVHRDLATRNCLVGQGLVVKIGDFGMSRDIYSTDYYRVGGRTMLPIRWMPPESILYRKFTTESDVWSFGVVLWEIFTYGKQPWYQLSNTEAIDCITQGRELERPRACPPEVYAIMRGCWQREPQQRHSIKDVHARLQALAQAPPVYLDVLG
T3 sequence (P78368 whole entry): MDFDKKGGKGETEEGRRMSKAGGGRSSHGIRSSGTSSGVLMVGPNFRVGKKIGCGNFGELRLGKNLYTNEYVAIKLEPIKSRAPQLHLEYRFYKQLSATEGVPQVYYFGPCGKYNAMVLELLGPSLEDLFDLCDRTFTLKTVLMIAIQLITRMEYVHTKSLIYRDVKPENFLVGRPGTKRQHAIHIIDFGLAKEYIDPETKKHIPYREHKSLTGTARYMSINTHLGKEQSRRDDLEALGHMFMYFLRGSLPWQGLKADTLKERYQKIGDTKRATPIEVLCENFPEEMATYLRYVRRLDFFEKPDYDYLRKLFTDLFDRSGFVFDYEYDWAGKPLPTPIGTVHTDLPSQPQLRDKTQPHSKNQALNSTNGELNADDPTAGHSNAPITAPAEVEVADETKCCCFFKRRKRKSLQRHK

Structure (SMILES)	RA @ 1000nM [1] [%]	RA @ 10000nM [1] [%]	RA @ 1000nM [2] [%]	RA @ 10000nM [2] [%]	RA @ 1000nM [3] [%]	RA @ 10000nM [3] [%]	RA @ 1000nM [4] [%]	RA @ 10000nM [4] [%]	RA @ 1000nM [5] [%]	RA @ 10000nM [5] [%]	RA @ 1000nM [6] [%]	RA @ 10000nM [6] [%]	RA @ 1000nM [7] [%]	RA @ 10000nM [7] [%]	RA @ 1000nM [8] [%]	RA @ 10000nM [8] [%]	RA @ 1000nM [9] [%]	RA @ 10000nM [9] [%]
CN(C)CCNC(=O)c1cc2c(cnn2CC2CCCCC2)cc1Cc1ccc(F)cc1F [Compound 95, 1-(Cyclohexylmethyl)-5-(2,4-difluorobenzyl)-N-(2-(dimethylamino)ethyl)-1H-indazole-6-carboxamide]	96	93	84	83	100	98	100	100	92	97	88	81	100	92	89	75	84	18
CC(C)Cn1ncc2cc(Cc3ccc(F)cc3F)c(C(=O)NCCN(C)C)cc21 [Compound 94, 5-(2,4-Difluorobenzyl)-N-(2-(dimethylamino)ethyl)-1-isobutyl-1H-indazole-6-carboxamide]	96	55	97	89	96	93	100	98	86	85	85	92	98	94	78	79	72	15
